Laboratory results reported in ChEMBL document CHEMBL1153253, “Imidazolinones as nonpeptide angiotensin II receptor antagonists” (Bioorg Med Chem Lett, 1994).

Legend:
[1] = biological target: T1, Type-2 angiotensin II receptor (Homo sapiens, UniProt P50052); test: The compound was tested for the ability to displace 50% of totally specifically bound [125I]- Ang II from Angiotensin II receptor, type 2
T1 sequence (P50052 whole entry): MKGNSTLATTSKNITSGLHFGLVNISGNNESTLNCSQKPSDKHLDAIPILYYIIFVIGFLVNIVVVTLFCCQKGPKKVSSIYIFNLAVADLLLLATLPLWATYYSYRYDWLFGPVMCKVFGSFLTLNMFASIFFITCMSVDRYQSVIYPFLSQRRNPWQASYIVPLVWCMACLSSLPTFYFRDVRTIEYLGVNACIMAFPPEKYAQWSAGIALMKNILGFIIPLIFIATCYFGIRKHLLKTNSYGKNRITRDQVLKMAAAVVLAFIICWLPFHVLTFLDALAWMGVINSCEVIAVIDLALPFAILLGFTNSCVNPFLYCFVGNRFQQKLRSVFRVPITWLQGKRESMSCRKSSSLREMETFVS

[2] = biological target: T2, Type-1 angiotensin II receptor A (Rattus norvegicus, UniProt P25095); test: Displacement of [125I]- Ang II from type 1 Angiotensin II receptor
T2 sequence (P25095 whole entry): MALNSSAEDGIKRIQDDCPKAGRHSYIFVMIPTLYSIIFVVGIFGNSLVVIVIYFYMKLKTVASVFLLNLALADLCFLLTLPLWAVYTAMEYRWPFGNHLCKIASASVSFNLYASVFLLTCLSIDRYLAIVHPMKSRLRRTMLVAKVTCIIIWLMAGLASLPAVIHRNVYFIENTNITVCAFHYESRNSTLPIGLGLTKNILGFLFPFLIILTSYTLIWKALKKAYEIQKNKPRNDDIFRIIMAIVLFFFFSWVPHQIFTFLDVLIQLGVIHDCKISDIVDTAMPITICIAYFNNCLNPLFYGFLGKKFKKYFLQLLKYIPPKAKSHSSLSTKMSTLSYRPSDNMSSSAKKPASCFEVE

[3] = test system: Rattus norvegicus; test: Effective dose required to lower blood pressure by 30 mm Hg in renal hypertensive rats following intravenous administration; assay type: functional
[4] = biological target: T3, Type-1 angiotensin II receptor (Homo sapiens, UniProt P30556); test: The compound was tested for the ability to displace 50% of totally specifically bound [125I]- Ang II from Angiotensin II receptor, type 1 site
T3 sequence (P30556 whole entry): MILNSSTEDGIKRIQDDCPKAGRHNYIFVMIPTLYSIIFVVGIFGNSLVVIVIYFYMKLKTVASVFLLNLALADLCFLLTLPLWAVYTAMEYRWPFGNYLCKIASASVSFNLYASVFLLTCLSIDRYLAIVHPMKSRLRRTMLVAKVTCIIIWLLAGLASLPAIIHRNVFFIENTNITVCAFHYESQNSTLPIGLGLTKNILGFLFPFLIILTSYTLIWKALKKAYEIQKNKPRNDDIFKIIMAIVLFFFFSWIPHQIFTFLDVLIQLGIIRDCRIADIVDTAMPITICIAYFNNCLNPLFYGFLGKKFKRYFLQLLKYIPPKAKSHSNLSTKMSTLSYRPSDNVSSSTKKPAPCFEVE

| Compound | IC50 [1] [nM] | IC50 [2] [nM] | ED30 [3] [mg/kg] | IC50 [4] [nM] |
| --- | --- | --- | --- | --- |
| CCCCC1=NC2(CCCC2)C(=O)N1Cc1ccc(-c2ccccc2S(=O)(=O)NC(=O)c2ccccc2)cc1 | 100 | 1 | 0.29 | – |
| CCCC1=NC2(CCSCC2)C(=O)N1Cc1ccc(-c2ccccc2-c2nnn[nH]2)cc1 | – | – | 0.26 | 2 |
| CCCC1=NC2(CC2)C(=O)N1Cc1ccc(-c2ccccc2-c2nn[nH]n2)cc1 | – | 3 | 0.54 | – |
| CCCC1=NC2(CCCCC2)C(=O)N1Cc1ccc(-c2ccccc2-c2nnn[nH]2)cc1 | – | 3 | 0.25 | – |
| CCCC1=NC2(CCCC2)C(=O)N1Cc1ccc(-c2ccccc2S(=O)(=O)NC(=O)c2ccccc2)cc1 | 300 | 9 | 0.14 | – |
| CCCC1=NC(C(F)(F)F)(C(F)(F)F)C(=O)N1Cc1ccc(-c2ccccc2-c2nn[nH]n2)cc1 | – | 20 | – | – |
| CCCC1=NC(C)(C)C(=O)N1Cc1ccc(-c2ccccc2-c2nn[nH]n2)cc1 | – | 4 | 0.36 | – |
| CCCC1=NC(c2ccccc2)(c2ccccc2)C(=O)N1Cc1ccc(-c2ccccc2-c2nn[nH]n2)cc1 | – | 300 | – | – |
| CCCC1=NC(C)(C)C(=O)N1Cc1ccc(-c2ccccc2S(=O)(=O)NC(=O)c2ccccc2)cc1 | 200 | 3 | 0.17 | – |
| CCCC1=NC2(CCCC2)C(=O)N1Cc1ccc(-c2ccccc2-c2nnn[nH]2)cc1 | – | 0.9 | 0.32 | – |
| O=C1N(Cc2ccc(-c3ccccc3-c3nn[nH]n3)cc2)C(c2ccccc2)=NC1(c1ccccc1)c1ccccc1 | – | 1400 | – | – |
| CC1=NC(c2ccccc2)(c2ccccc2)C(=O)N1Cc1ccc(-c2ccccc2-c2nnn[nH]2)cc1 | – | 100 | – | – |
| CCCC1=NC2(CCSCC2)C(=O)N1Cc1ccc(-c2ccccc2S(=O)(=O)NC(=O)c2ccccc2)cc1 | 200 | 1 | 0.29 | – |
| CCCC1=NC2(CCOCC2)C(=O)N1Cc1ccc(-c2ccccc2-c2nn[nH]n2)cc1 | – | 8 | 0.2 | – |
| CCCCC1=NC2(CCCC2)C(=O)N1Cc1ccc(-c2ccccc2-c2nnn[nH]2)cc1 [IRBESARTAN] | – | 0.9 | 0.16 | – |
